According to PubChem BioAssay (NCI):
Where “and” joins values, the source holds several entries; their conditions need not be identical. Identical values can stand only once.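 Cultured in 96-well plates, cells were exposed to test compound for 48 hours across five concentrations. At the GI50, growth is halved. TGI: concentration producing complete growth inhibition.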

Columns and labels:
Assay in all cases: inhibition of tumour cell growth, NCI panel, 48 h
[1] = test system: ACHN renal
[2] = test system: COLO 205 colon
[3] = test system: EKVX NSCLC
[4] = test system: HCC-2998 colon
[5] = test system: HL-60(TB) leukemia
[6] = test system: OVCAR-4 ovarian
[7] = test system: OVCAR-8 ovarian
[8] = test system: SF-268 CNS
[9] = test system: SR leukemia
[10] = test system: MCF7 breast

Row | SMILES | TGI [1] | TGI [2] | TGI [3] | TGI [4] | TGI [5] | TGI [6] | TGI [7] | TGI [8] | TGI [9] | GI50 [1] | GI50 [2] | GI50 [3] | GI50 [4] | GI50 [5] | GI50 [6] | GI50 [7] | GI50 [8] | GI50 [10] | TGI [10] | GI50 [9]
1 | O=C1Cc2ccccc2N1c1c(Cl)cccc1Cl | > 100 µM | > 100 µM | > 100 µM | > 100 µM | 50.8 µM | > 100 µM | > 100 µM | > 100 µM | 90.2 µM |  |  |  |  |  |  |  |  |  |  | 
2 | CCC[CH2][Sn]1([CH2]CCC)[O]C(=O)c2cccc(OC)c2[O]1 | 0.753 µM | 1.78 µM | 2.7 µM | 2.15 µM | 0.98 µM | 2.25 µM | 1.71 µM | 0.841 µM |  | 0.271 µM | 0.491 µM | 1.31 µM | 0.99 µM | 0.106 µM | 1.05 µM | 0.469 µM | 0.194 µM |  |  | 
3 | CO/N=C(\COc1ccc2c(c1)oc(=O)c1cc(OC)ccc12)c1ccc(F)cc1 | 32.1 µM | > 100 µM | > 100 µM | 72.7 µM |  | 58.3 µM | > 100 µM | > 100 µM |  | 16.8 µM | 59.6 µM | 35.2 µM | 23.6 µM |  | 21.2 µM | 26.7 µM | 29.9 µM | 34.7 µM | > 100 µM | 
4 | COc1ccc(/C(=N\O)c2cc(OC)c(OC)c(OC)c2)c(OC)c1N | > 100 µM | 6.5 µM | > 100 µM | > 100 µM | 6.55 µM | > 100 µM | > 100 µM | > 100 µM |  | 7.68 µM | 2.23 µM | 5.96 µM | 3.29 µM | 2.6 µM | 12.4 µM | 5.52 µM | 6.5 µM | 2.46 µM | > 100 µM | 
5 | C=CCC12CC(=O)C=C1CCC1(C2)OCCO1 (stereo not given) | > 100 µM | > 100 µM |  | > 100 µM | > 100 µM | > 100 µM |  | > 100 µM | > 100 µM |  |  |  |  |  |  |  |  |  |  | 
6 | O=C(Nc1ccc([N+](=O)[O-])cc1C(=O)O)c1ccc([N+](=O)[O-])cc1 | > 100 µM |  | > 100 µM | > 100 µM | 56.7 µM | > 100 µM | > 100 µM | > 100 µM |  |  |  |  |  |  |  |  |  |  |  | 
7 | O=C1Nc2ccccc2/C1=C/c1cn(C(=O)c2c(Cl)cccc2Cl)c2ccccc12 | 21.7 µM | 22.2 µM | 16.3 µM | 19.6 µM | 11 µM |  | 37.4 µM | 10.6 µM | 8.13 µM | 3.17 µM | 7.52 µM | 2.83 µM | 6.03 µM | 2.46 µM |  | 4.12 µM | 2.38 µM |  |  | 2.25 µM
8 | C#C[C@@]1(O)CCCC2=CC(=O)C[C@]21C | > 100 µM | > 100 µM | > 100 µM | > 100 µM | > 100 µM |  | > 100 µM | > 100 µM | > 100 µM |  |  |  |  |  |  |  |  |  |  | 
9 | Cc1ccc(/C=C/C(=O)c2ccc(N)cc2)c(C)c1 | 3.2 µM | 6.07 µM | 38.8 µM | 30.6 µM | 11.4 µM | 5 µM |  | 3.7 µM |  | 1.77 µM | 2.43 µM | 19.5 µM | 15.6 µM | 2.89 µM | 2.09 µM |  | 1.88 µM | 8.29 µM | 37.2 µM | 
10 | Cn1cnc([N+](=O)[O-])c1Sc1nc2cccnc2s1 | 80.6 µM | 22.7 µM | 33.8 µM | 30.9 µM |  | 25.2 µM | 90.1 µM | 69.1 µM | 37.1 µM |  |  |  |  |  |  |  |  |  |  | 
11 | C/C1=C\CC[C@@]2(C)O[C@@H]2C[C@@H]2[C@H](C/C(C)=C/CC1)OC(=O)C21CCN=N1 (stereo not given in full) | 75 µM and > 100 µM | > 100 µM | > 100 µM | > 75 µM | > 100 µM | 75 µM | > 100 µM | > 100 µM |  | > 100 µM | > 100 µM | > 100 µM |  |  |  | > 100 µM | > 100 µM | > 100 µM | > 100 µM | 
12 | CN(C)CC(C)(C)C(/C=C/c1ccccc1)=N\Nc1ccccc1 | 1.25 µM | 11.3 µM | 16.4 µM |  | 7.49 µM | 17.9 µM | 27.5 µM | 15.4 µM |  |  |  |  |  |  |  |  |  |  |  | 
13 | CC1C=CC(C)C2(O)C(=O)NC(O)C12 (stereo not given) | > 100 µM | > 100 µM | > 100 µM | > 100 µM | > 100 µM | > 100 µM | > 100 µM | > 100 µM | > 100 µM |  |  |  |  |  |  |  |  |  |  | 
14 | COc1ccc2cc3[n+](cc2c1OC)CCc1cc2c(cc1-3)OCO2 | > 100 µM | 33.3 µM [middle of 5 runs] | > 100 µM and 175 µM |  |  | 93.7 µM and > 100 µM and 62 µM |  |  | > 100 µM and 71.5 µM and > 75.6 µM |  | 7.46 µM [middle of 5 runs] |  |  |  |  | 3.69 µM | 4.68 µM |  | > 100 µM and > 88.3 µM and 126 µM | 
15 | Oc1ccccc1Nc1nc2ccccc2c2occc12 | 17 µM | 26 µM | 26.2 µM | 10.3 µM |  | 31.4 µM | 35.8 µM | 28.6 µM | > 100 µM | 3.9 µM | 13.3 µM | 11.3 µM | 3.11 µM |  | 10.8 µM | 15.4 µM | 8.74 µM | 25.2 µM | 51.8 µM | 14.8 µM
16 | Cn1c(=O)c2[nH]c(C3CC(=O)CC(c4nc5c([nH]4)c(=O)n(C)c(=O)n5C)N3)nc2n(C)c1=O (stereo not given) | > 100 µM | > 100 µM | > 100 µM |  | > 100 µM | > 100 µM | > 100 µM | > 100 µM | > 100 µM |  |  |  |  |  |  |  |  |  | > 100 µM | 
17 | COC(=O)c1oc2c(O)c(OC)c(Br)cc2c1C | 36.2 µM | 48.3 µM | 49.1 µM |  |  |  | 91.7 µM | > 100 µM | 18.2 µM | 20.2 µM | 22.5 µM | 23.8 µM |  |  |  | 28.7 µM | 31 µM | 27.1 µM | > 100 µM | 0.354 µM
18 | Cc1nc(N)sc1N=Nc1cc(Cl)c([N+](=O)[O-])cc1Cl | 55.9 µM | > 100 µM | 37.7 µM |  | 57.7 µM |  | 36.8 µM | 88.5 µM | 26.5 µM |  |  |  |  |  |  |  |  |  | 68.8 µM | 
